Where two headings read alike, the source gives them in different places.

The values that follow come from US20140148470A1, “PYRIMIDINE COMPOUNDS FOR TREATING HAIRLOSS” (Boehringer Ingelheim International GmbH, priority 2012, published 2014).

The target of one assay is T1, human CRTH2 (Homo sapiens, UniProt Q9Y5Y4).
T1 construct: expressed in transfected cells; host or cells: L1.2 cells (pEAK expression vector, puromycin selection)
T1 sequence (Q9Y5Y4 1-395): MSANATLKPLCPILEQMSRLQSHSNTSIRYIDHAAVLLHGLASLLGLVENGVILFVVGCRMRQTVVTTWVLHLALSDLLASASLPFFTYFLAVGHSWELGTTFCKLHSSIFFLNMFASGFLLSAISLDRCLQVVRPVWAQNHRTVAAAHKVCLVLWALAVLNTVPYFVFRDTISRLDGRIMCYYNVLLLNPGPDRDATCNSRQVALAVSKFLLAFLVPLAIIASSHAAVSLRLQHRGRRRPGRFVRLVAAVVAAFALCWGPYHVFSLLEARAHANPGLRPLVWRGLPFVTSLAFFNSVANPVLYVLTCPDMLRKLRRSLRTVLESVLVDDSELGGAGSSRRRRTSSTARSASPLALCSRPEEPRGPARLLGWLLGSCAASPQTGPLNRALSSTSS
Nature of the assay: Measurement of Ca2+ mobilization in the human CRTH2-transfected L1.2 cell line. The class given is cell-based. To be noted: PGD2-induced Ca2+ mobilization, human CRTH2-transfected L1.2 cells; compounds as yielded by solid phase synthesis, purity about 40 to 90%; read-out: Activity class (IC50). An excerpt:
[Preparation of Human CRTH2-Transfected L1. 2 Cell Line]
Human CRTH2 cDNA was amplified from human eosinophil cDNA with gene specific primers containing restriction sites for cloning into pEAK vector (Edge Bio Systems). The human CRTH2 cDNA was cloned into the mammalian expression vector pEAK. This expression plasmid ([…]) was transfected into L1. 2 cells, at a cell density of 1×10^7 cells/[…], by using electroporation apparatus (Gene Pulser II, BioRad) at 250V/[…]. One day after the transfection, puromycin (1 ug/mi, Sigma) was added into the cell culture plates. Two weeks after the transfection, grown cells were picked up for further growth.
[Measurement of Ca^2+ Mobilization in the Human CRTH2-Transfected L1. 2 Cell Line]
Ca^2+ loading buffer was prepared by mixing […] of Fluo-3AM (2 mM in DMSO, final 1 uM, Molecular Probes) and 10 µl of pluronic F-127 (Molecular Probes) and diluting the resulting mixture in 10 ml of Ca^2+ assay buffer (20 mM HEPES pH 7.6, 0.1% BSA, 1 mM probenecid, Hanks' solution). The CRTH2 transfected cells which were prepared in Example 1 were washed with PBS, resuspended in Ca2+ loading buffer at […] cells/ml, and incubated for 60 min at room temperature. After incubation, cells were washed and resuspended in Ca^2+ assay buffer, then dispensed into transparent-bottom 96-well plates (# 3631, Costar) at 2×10^5 cells/well. Cells were incubated with various concentrations of test compound for 5 minutes at room temperature. The emitted […] fluorescence was measured on FDSS6000, a Ca^2+-measurement apparatus (Hamamatsu Photonics, Hamamatsu, Japan).
The data corresponds to the compounds as yielded by solid phase synthesis and thus to levels of purity of about 40 to 90%. For practical reasons, the compounds are grouped in four classes of activity as follows: IC50=A (< or =) 10 nM<B (< or =) 100 nM<C (< or =) 500 nM<D. The compounds of the present invention also show excellent selectivity, and potent activity in Assays 2,3 and 4 described above.

The next assay concerns the target T2, CRTH2 (GPR44) (Mus musculus, UniProt Q9Z2J6).
T2 construct: host or cells: skin of wild-type mice, in vivo
T2 sequence (Q9Z2J6 1-382): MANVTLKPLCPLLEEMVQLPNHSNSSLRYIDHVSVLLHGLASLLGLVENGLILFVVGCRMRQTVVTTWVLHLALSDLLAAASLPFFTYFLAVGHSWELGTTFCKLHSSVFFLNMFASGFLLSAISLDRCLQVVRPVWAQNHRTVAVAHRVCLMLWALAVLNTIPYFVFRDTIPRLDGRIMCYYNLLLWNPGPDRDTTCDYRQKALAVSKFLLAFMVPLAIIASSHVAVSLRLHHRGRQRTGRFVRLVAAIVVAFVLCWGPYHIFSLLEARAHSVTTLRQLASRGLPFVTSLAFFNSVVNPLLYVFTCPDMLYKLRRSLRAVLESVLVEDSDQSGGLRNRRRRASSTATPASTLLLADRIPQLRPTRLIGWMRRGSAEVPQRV
To be noted: topical to skin, cited from earlier work.

Assay [1] has as its system explanted human hair follicles. To be noted: cited from earlier work.

On to `CN(C)c1nc(Cc2ccc(NC(=O)c3ccc4ccccc4c3)cc2)nc(Cl)c1CC(=O)O` [Example 1], for which the IC50 (as a rule, the concentration that gives 50% inhibition) at human CRTH2 was below 10 nM.

In the case of `CN(C)c1nc(Cc2ccc(NC(=O)c3ccc4ccccc4c3)cc2)ncc1CC(=O)O` [Example 10], at human CRTH2, the IC50 is below 10 nM.

In the case of `CN(C)c1nc(Cc2ccc(NC(=O)c3ccc(C(F)(F)F)cc3)cc2)nc(N(C)C)c1CC(=O)O` [Example 14], the IC50 on human CRTH2 was below 10 nM.

As to `O=C(O)Cc1c(Cl)nc(Cc2ccc(NC(=O)c3ccc4ccccc4c3)cc2)nc1Cl` [Example 20], at human CRTH2, the concentration for half-maximal inhibition (IC50) was below 10 nM.

Consider `CN(C)c1nc(Cc2ccc(NC(=O)c3ccc4ccccc4c3)cc2)nc(Cl)c1Cc1nnn[nH]1` [Example 21], for which the IC50 on human CRTH2 is below 10 nM.

For `CN(C)c1nc(Cc2ccc(NC(=O)c3ccc4ccccc4c3)cc2)nc(Cl)c1CC(N)=O` [Example 22], the IC50 on human CRTH2 fell in the range of 10 to 100 nM.

Turning to `CCCCC[C@H](O)/C=C/[C@H]1C(=O)C[C@H](O)[C@@H]1C/C=C\CCCC(=O)O` [PGD2, prostaglandin D2], the hair growth entry at CRTH2 (GPR44) (CRTH2 (GPR44) knockout mice) is reported as “not”; on CRTH2 (GPR44) (wild-type mice), “inhibited hair growth”; in assay [1] it was “inhibited hair growth”.
